19 compounds from patent US20120208809A1, “9H-PYRROLO[2,3-B: 5,4-C'] DIPYRIDINE AZACARBOLINE DERIVATIVES, PREPARATION THEREOF, AND THERAPEUTIC USE THEREOF” (SANOFI, priority 2009, published 2012) can be followed below.

In general, pIC50 refers to −log10 of the IC50, conventionally taken in molar units.

SMILES strings stand for the structures. pIC50: −log10 of the molar value.

The target in one assay is T1, Pim-1 (Homo sapiens, UniProt P11309).
T1 construct: full-length human recombinant His6-labelled Pim-1, Pim-2 or Pim-3 protein; His6; made in house
In words: TR-FRET assay of Pim kinase activity (phosphorylation of Bad Ser112), Pim-1. The assay is classed as biochemical. The note with it: ATP 40 μM, read-out: IC50 Pim1. The protocol:
(§1) In order to determine the inhibition of Pim kinase activity, the compounds of the invention are tested in accordance with a routinely-used in-vitro TR-FRET assay (“Time Resolved-Fluorescence Resonance Energy Transfer”). […] For the assay, the following reagents are used:
(§2) Pim kinase—full-length human recombinant His6-labelled Pim-1, Pim-2 or Pim-3 protein (prepared according to J. Mol. Biol. (2005) 348, 183-193); Bad—full-length human recombinant His6-labelled Bad protein (prepared according to J. Mol. Biol. (2005) 348, 183-193); α-His6-APC—mouse monoclonal antibody conjugated to allophycocyanine SureLight™ directed against the His6 label (Perkin-Elmer, No. AD0059H, Waltham, Mass., United States); α-P˜Bad-Eu—mouse monoclonal antibody (Cell Signaling Technology #9296B, Danvers, Mass., United States) directed against phosphoBad (Ser112) (7E11) labelled on request by Perkin-Elmer with the reagent LANCE™ Eu-W1024.
(§3) The assay is based on the LANCE™ technology from Perkin-Elmer: the Eu-labelled antibody binds to phospho-Ser112 and generates a TR-FRET signal by interaction with the […] antibody directed against His6, bound to the His6 label of Bad. The TR-FRET signal is detected using a SpectraMax M5 plate reader (Molecular Devices) with the following settings: λex=340 nm, λem1=615 nm, λem2=665 nm. The ratio of the fluorescence signal at 665 nm to the fluorescence signal at 615 nm is used as the signal reading for the IC50 (calculations based on the 4-parameter logistic model). The assay is performed in 384-well format; the liquid manipulations are performed using a Beckmann 3000 liquid manipulation station. The test compounds are tested at 10 concentration points in duplicate; the highest concentration of compound is typically equal to 30 μM. The ATP concentration is equal to 40 μM.
(In general: Time-resolved FRET reads energy transfer from a long-lived donor to a nearby acceptor.)

The next assay has as its target T2, Pim-2 (Homo sapiens, UniProt Q9P1W9).
T2 construct: full-length human recombinant His6-labelled Pim-1, Pim-2 or Pim-3 protein; His6; made in house
Description: TR-FRET assay of Pim kinase activity (phosphorylation of Bad Ser112), Pim-2. The assay is classed as biochemical. The settings on record: ATP 40 μM, read-out: IC50 Pim2. The protocol: as §1, §2, §3

Another assay concerns the target T3, Pim-3 (Homo sapiens, UniProt Q86V86).
T3 construct: full-length human recombinant His6-labelled Pim-1, Pim-2 or Pim-3 protein; His6; made in house
Description: TR-FRET assay of Pim kinase activity (phosphorylation of Bad Ser112), Pim-3. The assay is classed as biochemical. The settings on record: ATP 40 μM, read-out: IC50 Pim3. On the procedure:
as §1, §2, §3

For another assay, the target named is CDK1 (Homo sapiens, UniProt P06493). Description: Biochemical results, IC50 CDK1.
Another assay concerns the target PLK1 (Homo sapiens, UniProt P53350). Description: Biochemical results, IC50 PLK1.

Sequence of CDK1 (P06493 whole entry, species assumed): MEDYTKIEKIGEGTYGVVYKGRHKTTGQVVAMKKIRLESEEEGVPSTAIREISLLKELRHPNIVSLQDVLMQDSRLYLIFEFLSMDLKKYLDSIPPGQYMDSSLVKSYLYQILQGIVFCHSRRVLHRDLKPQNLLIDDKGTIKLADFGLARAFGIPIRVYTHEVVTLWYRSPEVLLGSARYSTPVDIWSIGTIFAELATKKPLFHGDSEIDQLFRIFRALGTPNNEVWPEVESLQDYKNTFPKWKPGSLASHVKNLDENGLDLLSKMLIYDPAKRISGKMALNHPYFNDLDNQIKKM
Sequence of CDK1 (P14635 whole entry partner, species assumed): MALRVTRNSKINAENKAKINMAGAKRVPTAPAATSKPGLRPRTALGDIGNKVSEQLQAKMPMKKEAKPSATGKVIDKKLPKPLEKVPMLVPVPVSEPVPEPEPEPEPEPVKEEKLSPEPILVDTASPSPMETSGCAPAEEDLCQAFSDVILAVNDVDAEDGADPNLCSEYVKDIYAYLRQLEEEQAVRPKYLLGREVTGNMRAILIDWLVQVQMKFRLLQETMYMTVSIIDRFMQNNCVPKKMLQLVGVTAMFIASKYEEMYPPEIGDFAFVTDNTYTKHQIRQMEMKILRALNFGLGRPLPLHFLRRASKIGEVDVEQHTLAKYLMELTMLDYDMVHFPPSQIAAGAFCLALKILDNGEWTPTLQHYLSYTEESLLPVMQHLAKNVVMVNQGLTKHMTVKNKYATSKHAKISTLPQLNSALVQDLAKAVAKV
T2 sequence (Q9P1W9 whole entry): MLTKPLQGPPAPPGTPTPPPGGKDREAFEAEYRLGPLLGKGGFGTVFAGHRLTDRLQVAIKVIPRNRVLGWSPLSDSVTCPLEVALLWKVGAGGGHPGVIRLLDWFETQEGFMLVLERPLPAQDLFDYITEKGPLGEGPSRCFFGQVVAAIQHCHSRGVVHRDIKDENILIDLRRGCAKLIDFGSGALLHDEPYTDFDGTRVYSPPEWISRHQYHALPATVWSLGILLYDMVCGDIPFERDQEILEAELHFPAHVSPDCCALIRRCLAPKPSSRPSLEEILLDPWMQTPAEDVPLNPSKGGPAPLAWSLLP
Sequence of PLK1 (P53350 whole entry, species assumed): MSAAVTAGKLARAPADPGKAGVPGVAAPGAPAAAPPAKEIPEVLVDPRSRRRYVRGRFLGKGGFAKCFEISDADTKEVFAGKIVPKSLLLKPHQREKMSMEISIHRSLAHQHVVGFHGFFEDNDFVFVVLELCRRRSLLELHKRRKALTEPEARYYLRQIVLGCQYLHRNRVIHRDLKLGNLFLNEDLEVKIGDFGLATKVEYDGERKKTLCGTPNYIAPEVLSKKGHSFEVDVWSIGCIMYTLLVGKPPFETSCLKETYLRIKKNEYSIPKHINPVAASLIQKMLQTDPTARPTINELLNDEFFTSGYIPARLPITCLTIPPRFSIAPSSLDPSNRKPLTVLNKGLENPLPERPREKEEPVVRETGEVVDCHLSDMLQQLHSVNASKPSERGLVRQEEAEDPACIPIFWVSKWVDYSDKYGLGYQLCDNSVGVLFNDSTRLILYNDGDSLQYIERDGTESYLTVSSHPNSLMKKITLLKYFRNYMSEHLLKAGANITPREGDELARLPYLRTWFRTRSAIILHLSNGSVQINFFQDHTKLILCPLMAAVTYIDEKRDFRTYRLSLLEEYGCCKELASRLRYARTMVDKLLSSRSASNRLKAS
T1 sequence (P11309 whole entry): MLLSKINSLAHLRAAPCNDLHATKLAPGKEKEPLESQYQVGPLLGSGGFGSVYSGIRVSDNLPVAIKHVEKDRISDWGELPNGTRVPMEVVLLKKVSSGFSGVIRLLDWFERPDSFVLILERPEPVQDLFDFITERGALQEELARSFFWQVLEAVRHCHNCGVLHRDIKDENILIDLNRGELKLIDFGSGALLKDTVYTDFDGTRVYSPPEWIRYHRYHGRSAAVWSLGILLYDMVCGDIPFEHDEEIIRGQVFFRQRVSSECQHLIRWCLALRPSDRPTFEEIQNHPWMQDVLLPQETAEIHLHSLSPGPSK

In the case of `O=C(c1ccc(-c2c(F)cnc3[nH]c4cnc(-c5cccnc5)cc4c23)cc1)N1CCOCC1` [Example 13, {4-[3-fluoro-6-(pyridin-3-yl)-9H-pyrrolo[2,3-b:5,4-c′]dipyridin-4-yl]phenyl}(morpholin-4-yl)methanone], the pIC50 on Pim-1 is > 7.00; on Pim-2, 5.30 to 6.00; on Pim-3 it was 6.00 to 7.00.

Consider `COCCNC(=O)c1ccc(-c2c(F)cnc3[nH]c4cnc(-c5cccnc5)cc4c23)cc1` [Example 14, 4-[3-fluoro-6-(pyridin-3-yl)-9H-pyrrolo[2,3-b:5,4-c′]dipyridin-4-yl]-N-(2-methoxyethyl)benzamide], for which the pIC50 on Pim-1 is > 7.00; on Pim-2, 5.30 to 6.00; at Pim-3, 6.00 to 7.00.

As for `O=C(c1cccc(-c2c(F)cnc3[nH]c4cnc(-c5cccnc5)cc4c23)c1)N1CCOCC1` [Example 15, {3-[3-fluoro-6-(pyridin-3-yl)-9H-pyrrolo[2,3-b:5,4-c′]dipyridin-4-yl]phenyl}(morpholin-4-yl)methanone], the pIC50 at Pim-1 is 6.00 to 7.00; on Pim-2, < 5.30; on Pim-3 it was 5.30 to 6.00.

Consider `CN1CCN(C(=O)c2ccc(-c3c(F)cnc4[nH]c5cnc(-c6cccnc6)cc5c34)cc2)CC1` [Example 16, {4-[3-fluoro-6-(pyridin-3-yl)-9H-pyrrolo[2,3-b:5,4-c′]dipyridin-4-yl]phenyl}(4-methylpiperazin-1-yl)methanone], for which the pIC50 on Pim-1 was > 7.00; at Pim-2 it was 5.30 to 6.00; on Pim-3, 6.00 to 7.00.

As for `COCCCNC(=O)c1ccc(-c2c(F)cnc3[nH]c4cnc(-c5cccnc5)cc4c23)cc1` [Example 17, 4-[3-fluoro-6-(pyridin-3-yl)-9H-pyrrolo[2,3-b:5,4-c′]dipyridin-4-yl]-N-(3-methoxypropyl)benzamide], the pIC50 on Pim-1 was > 7.00; at Pim-2, 5.30 to 6.00; at Pim-3, 6.00 to 7.00.

As for `O=C(NCCNCCO)c1ccc(-c2c(F)cnc3[nH]c4cnc(-c5cccnc5)cc4c23)cc1` [Example 27, 4-[3-fluoro-6-(pyridin-3-yl)-9H-pyrrolo[2,3-b:5,4-c′]dipyridin-4-yl]-N-{2-[(2-hydroxyethyl)amino]ethyl}benzamide], the pIC50 was > 7.00 on Pim-1; > 7.00 on Pim-2; > 7.00 at Pim-3; 5.30 to 6.00 at CDK1; 6.00 to 7.00 on PLK1.

For `O=C(NCc1nnn[nH]1)c1ccc(-c2c(F)cnc3[nH]c4cnc(-c5cccnc5)cc4c23)cc1` [Example 45, 4-[3-fluoro-6-(pyridin-3-yl)-9H-pyrrolo[2,3-b:5,4-c′]dipyridin-4-yl]-N-(1H-tetrazol-5-ylmethyl)benzamide], the pIC50 is 6.00 to 7.00 at Pim-1; < 5.30 on Pim-2; 6.00 to 7.00 on Pim-3; 6.00 to 7.00 at CDK1; > 7.00 against PLK1.

In the case of `CN(C)[C@@H]1CCN(C(=O)c2ccc(-c3c(F)cnc4[nH]c5cnc(-c6cccnc6)cc5c34)cc2)C1` [Example 46, [(3R)-3-(dimethylamino)pyrrolidin-1-yl]{4-[3-fluoro-6-(pyridin-3-yl)-9H-pyrrolo[2,3-b:5,4-c′]dipyridin-4-yl]phenyl}methanone], the pIC50 at Pim-1 is > 7.00; on Pim-2, 5.30 to 6.00; at Pim-3 it was > 7.00; on CDK1, 6.00 to 7.00; against PLK1, 6.00 to 7.00.

Turning to `CN1C[C@@H]2CCN(C(=O)c3ccc(-c4c(F)cnc5[nH]c6cnc(-c7cccnc7)cc6c45)cc3)[C@@H]2C1` [Example 47, {4-[3-fluoro-6-(pyridin-3-yl)-9H-pyrrolo[2,3-b:5,4-c′]dipyridin-4-yl]phenyl}[(3aS,6aS)-5-methylhexahydropyrrolo[3,4-b]pyrrol-1(2H)-yl]methanone], the pIC50 was > 7.00 at Pim-1; > 7.00 on Pim-2; > 7.00 on Pim-3; 6.00 to 7.00 at CDK1; 6.00 to 7.00 against PLK1.

As to `CC(=O)NCCNC(=O)c1ccc(-c2c(F)cnc3[nH]c4cnc(-c5cccnc5)cc4c23)cc1` [Example 48, N-[2-(acetylamino)ethyl]-4-[3-fluoro-6-(pyridin-3-yl)-9H-pyrrolo[2,3-b:5,4-c′]dipyridin-4-yl]benzamide], the pIC50 at Pim-1 was > 7.00; at Pim-2, 5.30 to 6.00; at Pim-3, 6.00 to 7.00; against CDK1, 6.00 to 7.00; against PLK1, > 7.00.

As for `O=C(NCCCN1CCCC1=O)c1ccc(-c2c(F)cnc3[nH]c4cnc(-c5cccnc5)cc4c23)cc1` [Example 49, 4-[3-fiuoro-6-(pyridin-3-yl)-9H-pyrrolo[2,3-b:5,4-c′]dipyridin-4-yl]-N-[3-(2-oxopyrrolidin-1-yl)propyl]benzamide], the pIC50 at Pim-1 was 6.00 to 7.00; at Pim-2, < 5.30; on Pim-3 it was 6.00 to 7.00; on CDK1, 5.30 to 6.00; against PLK1, 6.00 to 7.00.

For `O=C(NCCNc1ccccc1)c1ccc(-c2c(F)cnc3[nH]c4cnc(-c5cccnc5)cc4c23)cc1` [Example 50, 4-[3-fluoro-6-(pyridin-3-yl)-9H-pyrrolo[2,3-b:5,4-c′]dipyridin-4-yl]-N-[2-(phenylamino)ethyl]benzamide], the pIC50 was 6.00 to 7.00 at Pim-1; < 5.30 on Pim-2; 6.00 to 7.00 on Pim-3; 6.00 to 7.00 at CDK1; > 7.00 against PLK1.

Take `CCN1CCCC1CNC(=O)c1ccc(-c2c(F)cnc3[nH]c4cnc(-c5cccnc5)cc4c23)cc1` (stereo not drawn) [Example 51, N-[(1-ethylpyrrolidin-2-yl)methyl]-4-[3-fluoro-6-(pyridin-3-yl)-9H-pyrrolo[2,3-b:5,4-c′]dipyridin-4-yl]benzamide]: the pIC50 was > 7.00 on Pim-1; 6.00 to 7.00 at Pim-2; > 7.00 at Pim-3; 5.30 to 6.00 at CDK1; 6.00 to 7.00 on PLK1.

Take `CCN1CCC[C@H]1CNC(=O)c1ccc(-c2c(F)cnc3[nH]c4cnc(-c5cccnc5)cc4c23)cc1` [Example 53, N-{[(2S)-1-ethylpyrrolidin-2-yl]methyl}-4-[3-fluoro-6-(pyridin-3-yl)-9H-pyrrolo[2,3-b:5,4-c′]dipyridin-4-yl]benzamide]: the pIC50 on Pim-1 was > 7.00; at Pim-2, 6.00 to 7.00; on Pim-3 it was > 7.00; on CDK1, 5.30 to 6.00; against PLK1, 6.00 to 7.00.

Regarding `N[C@@H]1CCCC[C@H]1NC(=O)c1ccc(-c2c(F)cnc3[nH]c4cnc(-c5cccnc5)cc4c23)cc1` [Example 83, N-[(1R,2R)-2-aminocyclohexyl]-4-[3-fluoro-6-(pyridin-3-yl)-9H-pyrrolo[2,3-b:5,4-c′]dipyridin-4-yl]benzamide], the pIC50 on Pim-1, at Pim-2 and at Pim-3 was > 7.00 each time.

As for `N[C@H]1CCC[C@@H]1NC(=O)c1ccc(-c2c(F)cnc3[nH]c4cnc(-c5cccnc5)cc4c23)cc1` [Example 85, N-[(1S,2S)-2-aminocyclopentyl]-4-[3-fluoro-6-(pyridin-3-yl)-9H-pyrrolo[2,3-b:5,4-c′]dipyridin-4-yl]benzamide], the pIC50 on Pim-1, on Pim-2 and at Pim-3 was > 7.00 throughout.

Take `N[C@@H]1CCC[C@H]1NC(=O)c1ccc(-c2c(F)cnc3[nH]c4cnc(-c5cccnc5)cc4c23)cc1` [Example 86, N-[(1R,2R)-2-aminocyclopentyl]-4-[3-fluoro-6-(pyridin-3-yl)-9H-pyrrolo[2,3-b:5,4-c′]dipyridin-4-yl]benzamide]: the pIC50 at Pim-1, on Pim-2 and on Pim-3 was > 7.00 throughout.

`CN(C)CCNC(=O)c1ccc(-c2c(F)cnc3[nH]c4cnc(-c5cccnc5)cc4c23)cn1` [Example 112, N-[2-(dimethylamino)ethyl]-5-[3-fluoro-6-(pyridin-3-yl)-9H-pyrrolo[2,3-b:5,4-c′]dipyridin-4-yl]pyridine-2-carboxamide]: the values for the pIC50 at Pim-1, on Pim-2 and at Pim-3 were 6.00 to 7.00, 5.30 to 6.00 and 6.00 to 7.00, respectively.

Turning to `CN(C)CCNC(=O)c1ccc(-c2c(F)cnc3[nH]c4cnc(-c5cccnc5)cc4c23)cc1F` [Example 113, N-[2-(dimethylamino)ethyl]-2-fluoro-4-[3-fluoro-6-(pyridin-3-yl)-9H-pyrrolo[2,3-b:5,4-c′]dipyridin-4-yl]benzamide], the pIC50 at Pim-1 was > 7.00; at Pim-2 it was 6.00 to 7.00; at Pim-3, > 7.00.
